# Assay results from PubChem BioAssay AID1159585 (Gregory J. Crowther, 2016).
# Target: Calcium-dependent protein kinase 1 (Plasmodium falciparum (isolate 3D7)) (UniProt P62344)
# Test: PfCDPK1 kinase inhibitors, biochemical, TCAMS library (AID 1159585);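 also: inhibitors leave more ATP so luminescence rises with inhibition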
# Details: recombinant PfCDPK1, Kinase-Glo ATP depletion luminescence
# Sequence of Calcium-dependent protein kinase 1 (Plasmodium falciparum (isolate 3D7)) (P62344 whole entry, looked up): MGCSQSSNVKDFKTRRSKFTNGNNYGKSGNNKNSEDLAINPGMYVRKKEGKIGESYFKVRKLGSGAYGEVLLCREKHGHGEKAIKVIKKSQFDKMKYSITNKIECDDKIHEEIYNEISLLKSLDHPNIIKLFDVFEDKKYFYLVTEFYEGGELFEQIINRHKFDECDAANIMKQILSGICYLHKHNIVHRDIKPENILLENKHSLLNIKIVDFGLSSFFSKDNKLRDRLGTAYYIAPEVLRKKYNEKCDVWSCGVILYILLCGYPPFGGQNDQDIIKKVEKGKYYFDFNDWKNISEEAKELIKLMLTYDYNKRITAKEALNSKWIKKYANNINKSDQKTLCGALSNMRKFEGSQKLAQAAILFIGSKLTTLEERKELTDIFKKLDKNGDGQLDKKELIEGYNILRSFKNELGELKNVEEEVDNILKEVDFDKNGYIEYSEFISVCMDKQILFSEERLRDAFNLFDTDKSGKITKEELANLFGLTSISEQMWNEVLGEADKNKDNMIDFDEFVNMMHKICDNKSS
row,Compound,IC50 [nM]
1,O=c1[nH]ccc2nc(N[C@@H]3CCNC3)nc(Nc3cc(Cl)cc(Cl)c3)c12,33
2,CCn1c(-c2nc(-c3ccnc(N4CCN(C)CC4)c3)cnc2N)nc2cc(S(C)(=O)=O)ccc21,654
3,CS(=O)(=O)Cc1ccc(Nc2nccc(-c3c(-c4cccc(C(=O)Nc5c(F)cccc5F)c4)nn4ccccc34)n2)cc1,50
4,CNCC(C)(C)c1nc(-c2ccc(Cl)c(O)c2)c(-c2ccncc2)[nH]1,49
5,COCCNCc1cccc(-c2ccc3c(Nc4ccc(Oc5ccccc5)cc4)ccnc3c2)c1,979
6,CS(=O)(=O)Nc1cccc(-c2cnc3[nH]cc(-c4cccc(CN)c4)c3c2)c1,387
7,CC(C)(CN)c1nc(-c2ccc(Cl)c(O)c2)c(-c2ccncc2)[nH]1,10
8,CC(=O)Nc1cccc(Nc2nccc(Nc3ccc(Oc4ccccc4)cc3)n2)c1,425
9,COc1ccc(Nc2ncc(OC)c(Nc3ccccc3C(N)=O)n2)cc1N1CCN(C)CC1,967
10,CCN(CC)CCOc1ccc(Nc2ncc3cc(-c4c(Cl)cccc4Cl)c(=O)n(C)c3n2)cc1,780
11,O=C(NCCN1CCCCC1)c1ccc(Nc2nccc(Nc3ccc(Oc4ccccc4)cc3)n2)cc1,103
12,CC(C)(CNCc1ccc(Cl)c(Cl)c1)c1nc(-c2ccc(Cl)c(O)c2)c(-c2ccncc2)[nH]1,539
13,NC(=O)c1ccccc1Nc1nc(Nc2ccn[nH]2)ncc1Cl,186
14,OC1CCC(Nc2ccc3ncc(-c4ccc(Cl)cc4)n3n2)CC1 (configuration not stated),503
15,CS(=O)(=O)c1cccc(-c2cnc3[nH]cc(-c4cccc(CCN)c4)c3c2)c1,44
16,CC(C)(CNC(=O)[C@@H]1CCCCN1)c1nc(-c2ccc(Cl)c(O)c2)c(-c2ccncc2)[nH]1,192
17,CN(C)CCN(C)Cc1nc(-c2ccc3c(Nc4ccc(Oc5ccccc5)cc4)ccnc3c2)cs1,915
18,COc1ccc(Nc2ncc(Cl)c(Nc3cccnc3C(N)=O)n2)cc1N1CCN(C)CC1,559
19,O=C(Nc1cccc(-c2nn3ccccc3c2-c2ccnc(Nc3ccc(C(=O)N4CCOCC4)cc3)n2)c1)c1c(F)cccc1F,92
20,c1ccc(Oc2ccc(Nc3ccnc(Nc4ccc5cn[nH]c5c4)n3)cc2)cc1,765
21,COCCNCc1ncsc1-c1ccc2c(Nc3cc(O)c(Cl)cc3F)ccnc2c1,150
22,O=C(NCCCN1CCOCC1)c1cccc(Nc2nccc(Nc3ccc(Oc4ccccc4)cc3)n2)c1,180
23,CCn1c(-c2nonc2N)nc2c(-c3cccc(NC(=O)Nc4ccccc4OC)c3)ncc(OCCCN)c21,32

row,Compound,IC50 [nM]
1,NCC1(c2nc(-c3ccc(Cl)c(O)c3)c(-c3ccncc3)[nH]2)CCCCC1,14
2,O=C(Nc1c(F)cccc1F)c1cccc(-c2nn3ccccc3c2-c2ccnc(Nc3cccc(-c4cnco4)c3)n2)c1,40
3,NC(=O)c1ccccc1Nc1nc(Nc2cccc(N3CCN(CCO)CC3)c2)ncc1Cl,58
4,Cc1nnc(-c2cccc(Nc3ccnc4cc(-c5nccs5)ccc34)c2)o1,186
5,CCOC(=O)c1cccc(NC(=O)Nc2cccc(-c3ncc(OCCCN)c4c3nc(-c3nonc3N)n4CC)c2)c1,294
6,CC(c1cccc(Nc2nccc(-c3c(-c4cccc(NC(=O)c5c(F)cccc5F)c4)nn4ccccc34)n2)c1)S(C)(=O)=O (configuration not stated),21
7,CN1CCN(c2ccc(Nc3ncc(Cl)c(Nc4cccnc4C(N)=O)n3)cc2)CC1,12
8,COc1ccc(-c2cnc3ccc(N4CCCC4)nn23)cc1OC,310
9,NCCCNc1nc(Nc2cccc(C(N)=O)c2)c2c(=O)[nH]ccc2n1,750
10,COc1cc2nccc(Nc3ccc(Oc4ccccc4)cc3)c2cc1OC,145
11,CN1CCN(CCCNCc2cccc(Nc3nccc(Nc4ccc(Oc5ccccc5)cc4)n3)c2)CC1,261
12,NCCNC(=O)c1ccc(-c2cnc3[nH]cc(-c4ccc(C(N)=O)cc4)c3c2)cc1,24
13,COCCNCc1cccc(-c2ccc3c(Nc4ccc(Oc5cccnc5)cc4)ccnc3c2)c1,913
14,CC(C)(CN)c1cc(-c2ccc(Cl)c(O)c2)c(-c2ccncc2)o1,13
15,CN1CCN(Cc2ccc(-c3ccc4c(Nc5cc(O)c(Cl)cc5F)ccnc4c3)o2)CC1,131
16,CCn1c(-c2nonc2N)nc2c(-c3cccc(Cl)c3)ncc(OCCCNCc3cnc(C)nc3N)c21,271
17,O=C(Nc1cccc(-c2nn3ncccc3c2-c2ccnc(Nc3cccc(-c4cnco4)c3)n2)c1)c1c(F)cccc1F,23
18,CCNC(=O)Nc1ccc(-c2cnc(N)c(-c3nc4ccc(OC)cc4[nH]3)c2)cc1,145
19,CS(=O)(=O)Cc1ccc(Nc2nccc(-c3c(-c4cccc(NC(=O)c5c(F)cccc5F)c4)nn4ncccc34)n2)cc1,11
20,COc1cc(-c2nc(C(C)(C)CN)[nH]c2-c2ccncc2)ccc1Br,159
21,O=C(Nc1cccc(-c2nn3ncccc3c2-c2ccnc(Nc3ccccc3)n2)c1)c1c(F)cccc1F,39
22,COCCOc1ccc(Nc2nccc(-c3c(-c4cccc(NC(=O)c5c(F)cccc5F)c4)nn4ccccc34)n2)cc1Cl,152
23,O=C(NCCCN1CCCCC1)c1cccc(Nc2nccc(Nc3ccc(Oc4ccccc4)cc3)n2)c1,243

row,Compound,IC50 [nM]
1,N#CCc1ccc(Nc2nccc(Nc3ccc(Oc4ccccc4)cc3)n2)cc1,798
2,COc1ccc(Nc2ncc3c(-c4cccc(NC(=O)Cc5ccc(O)cc5)c4)c[nH]c3n2)cc1OC,98
3,CCn1c(-c2nonc2N)nc2c(-c3cccc(NC(=O)Nc4ccc(C(F)(F)F)cc4)c3)ncc(OCCCN)c21,959
4,N#Cc1ccc(-c2cnc3ccc(NCCc4cccnc4)nn23)cc1,246
5,CC(C)(CNCc1ccccc1)c1nc(-c2ccc(Cl)c(O)c2)c(-c2ccncc2)[nH]1,190
6,COc1cccc(CNCC(C)(C)c2nc(-c3ccc(Cl)c(O)c3)c(-c3ccncc3)[nH]2)c1,275
7,Cc1cccc(Nc2nc(N[C@@H]3CCCNC3)nc3cc[nH]c(=O)c23)c1,23
8,CC(C)(CNC(=O)C1CCN(CCOc2ccc(Cl)cc2)CC1)c1nc(-c2ccc(Cl)c(O)c2)c(-c2ccncc2)[nH]1,471
9,COCCNCc1cccc(-c2ccc3c(Nc4cc(O)c(Cl)cc4F)ccnc3c2)c1,436
10,COc1cccc(Nc2nccc(-c3c(-c4cccc(NC(=O)c5c(F)cccc5F)c4)nn4ccccc34)n2)c1,87
11,CC(C)(CNCc1ccc(Cl)cc1)c1nc(-c2ccc(Cl)c(O)c2)c(-c2ccncc2)[nH]1,257
12,COc1ccc(-c2cnc3ccc(NC4CCC(O)CC4)nn23)cn1 (configuration not stated),379
13,CN(C)CCNCc1cccc(-c2ccc3c(Nc4ccc(Oc5ccccn5)cc4)ccnc3c2)c1,845
14,Cc1cc(F)ccc1-c1nc(Nc2ccncc2)c2ccn(C)c2n1,40
15,O=C(NCCN1CCCC1)c1cccc(Nc2nccc(Nc3ccc(Oc4ccccc4)cc3)n2)c1,213
16,CC(C)(CNCc1ccc(F)c(F)c1)c1nc(-c2ccc(Cl)c(O)c2)c(-c2ccnc(N)n2)[nH]1,469
17,O=C(NCCN1CCC(c2ccncc2)CC1)c1cccc(Nc2nccc(Nc3ccc(Oc4ccccc4)cc3)n2)c1,220
18,Nc1ncc(-c2cn[nH]c2)cc1-c1nc2ccc(Cl)cc2[nH]1,834
19,CCn1c(-c2nonc2N)nc2c(-c3cccc(NC(=O)Nc4ccc(Cl)cc4)c3)ncc(OCCCN)c21,44
20,Oc1cc(Nc2ccnc3cc(I)ccc23)c(F)cc1Cl,282
21,CC(C)(CNCc1ccc(OC(F)(F)F)cc1)c1nc(-c2ccc(Cl)c(O)c2)c(-c2ccncc2)[nH]1,438
22,CS(=O)(=O)Cc1ccc(Nc2nccc(-c3c(-c4cccc(NC(=O)C5CCCCC5)c4)nn4ncccc34)n2)cc1,37
23,CN1CCN(c2ccc(Nc3nccc(-c4c(-c5cccc(NC(=O)c6c(F)cccc6F)c5)nn5ccccc45)n3)cc2)CC1,35

row,Compound,IC50 [nM]
1,CCn1c(-c2nonc2N)nc2c(-c3cccc(NC(=O)Nc4ccccc4Cl)c3)ncc(OCCCN)c21,72
2,Cc1ccc(O)cc1Nc1ccnc2cc(-c3cccc(CNCCS(C)(=O)=O)c3)ccc12,125
3,COc1ccc(-c2cnc3[nH]cc(-c4ccncc4)c3c2)cc1OC,390
4,NS(=O)(=O)CCc1cccc(Nc2nccc(-c3c(-c4cccc(NC(=O)c5c(F)cccc5F)c4)nn4ccccc34)n2)c1,20
5,CCn1c(-c2nonc2N)nc2c(-c3cccc(NC(=O)Nc4cccc(Cl)c4)c3)ncc(OCCCN)c21,379
6,O=c1[nH]ccc2nc(N[C@@H]3CCNC3)nc(Nc3ccc4c(c3)S(=O)(=O)CC4)c12,235
7,CC(C)(C)CNCC(C)(C)c1nc(-c2ccc(Cl)c(O)c2)c(-c2ccncc2)[nH]1,159
8,Oc1cccc(-c2cnc3ccc(NCc4ccc(F)cc4)nn23)c1,115
9,Cc1ccc(Nc2nccc(Nc3ccc4c(c3)nc(Nc3cc(C(C)(C)C)on3)n4C)n2)cc1S(C)(=O)=O,242
10,O=C(Nc1cccc(-c2nn3ccccc3c2-c2ccnc(Nc3cccc(-c4cnco4)c3)n2)c1)C1CCCCC1,164
11,CNC(=O)c1ccccc1Nc1nc(Nc2cccc(CS(C)(=O)=O)c2)ncc1C,145
12,CC(C)(CNCc1ccc(F)c(F)c1)c1nc(-c2ccc(Cl)c(O)c2)c(-c2ccncc2)[nH]1,451
13,Cc1cc(Nc2ncc(C#N)c(Nc3ccccc3C(N)=O)n2)ccc1N1CCN(C)CC1,10
14,CC(c1cccc(Nc2nccc(-c3c(-c4cccc(NC(=O)c5c(F)cccc5F)c4)nn4ncccc34)n2)c1)S(C)(=O)=O (configuration not stated),95
15,CS(=O)(=O)Cc1ccc(Nc2nccc(-c3c(-c4cccc(NC(=O)c5c(F)cccc5F)c4)nn4ccccc34)n2)cc1,20
16,COc1ccc2nc(-c3cc(-c4ccc(NC(C)=O)cc4)cnc3N)[nH]c2c1,501
17,CC(C)(CNCCOc1ccc(Cl)cc1)c1nc(-c2ccc(Cl)c(O)c2)c(-c2ccnc(N)n2)[nH]1,755
18,CCn1c(-c2nonc2N)nc2c(-c3cccc(NC(=O)NC45CC6CC(CC(C6)C4)C5)c3)ncc(OCCCN)c21,84
19,Cc1csc(-c2ncc(OC[C@@H](N)Cc3ccccc3)cc2-c2ccc3n[nH]c(C)c3c2)c1,44
20,CN1CCN(c2ccc(Nc3nccc(-c4cnn5ncccc45)n3)cc2Cl)CC1,232
21,O=C(NCCN1CCC(c2ccncc2)CC1)c1ccc(Nc2nccc(Nc3ccc(Oc4ccccc4)cc3)n2)cc1,135
22,c1ccc(Oc2ccc(Nc3ccnc(Nc4ccc(OCCN5CCCCC5)cc4)n3)cc2)cc1,701
23,CC(=O)Nc1cccc(Nc2nccc(-c3c(-c4cccc(NC(=O)c5c(F)cccc5F)c4)nn4ncccc34)n2)c1,15
